US20240246980A1, “MODULATORS OF MAS-RELATED G-PROTEIN RECEPTOR D AND RELATED PRODUCTS AND METHODS” (Escient Pharmaceuticals, Inc., priority 2022, published 2024)

target: human MRGPRD (Homo sapiens, UniProt Q8TDS7); assay: MRGPRD antagonist activity, IP-One HTRF assay in CHO cells stably expressing human MRGPRD (versus 100 μM β-Alanine agonist); format: cell-based
In short: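 Cells (20,000/well, plated overnight) received antagonist and agonist in buffer with 5.7 mM Tris-HCl, 43 mM NaCl and 50 mM LiCl at pH 8. Incubation ran 1 h at 37 °C, then 1 h at room temperature, before IP-1 HTRF detection. IC50 was fitted from the HTRF ratio, and percent antagonism was taken relative to the maximum efficacy response, given as averages with SEM.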

Sequence of human MRGPRD (Q8TDS7 whole entry): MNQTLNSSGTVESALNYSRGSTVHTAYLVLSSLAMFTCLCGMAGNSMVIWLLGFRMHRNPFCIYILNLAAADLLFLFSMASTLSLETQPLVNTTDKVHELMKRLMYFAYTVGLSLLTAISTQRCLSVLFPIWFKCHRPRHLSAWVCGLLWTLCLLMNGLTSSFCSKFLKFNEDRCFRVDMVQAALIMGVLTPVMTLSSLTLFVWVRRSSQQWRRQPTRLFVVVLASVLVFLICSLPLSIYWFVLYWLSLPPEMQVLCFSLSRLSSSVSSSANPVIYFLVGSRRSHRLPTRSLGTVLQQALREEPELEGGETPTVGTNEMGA

Compound	IC50 [nM]
COc1cccc(-c2nc([C@@H]3CCCN(C(=O)Nc4cnc(C)nc4)C3)n3ccccc23)c1 [Compound 5-73]	< 100
COc1cccc(-c2nc([C@@H]3CCCN(C(=O)Nc4cccc(CO)c4)C3)n3ccccc23)c1 [Compound 6-1, (R)—N-(3-(hydroxymethyl)phenyl)-3-(1-(3-methoxyphenyl)imidazo[1,5-a]pyridin-3-yl)piperidine-1-carboxamide]	< 100
CNc1ccc(NC(=O)N2CCC[C@@H](c3nc(-c4cccc(OC)c4)c4ccccn34)C2)cc1 [Compound 7-1, (R)-3-(1-(3-methoxyphenyl)imidazo[1,5-a]pyridin-3-yl)-N-(4-(methylamino)phenyl)piperidine-1-carboxamide]	< 100
COc1cccc(-c2nc(-c3cccc(C(=O)Nc4cccc(N(C)C)c4)c3)n3ccccc23)c1 [Compound 8-1, N-(3-(dimethylamino)phenyl)-3-(1-(3-methoxyphenyl)imidazo[1,5-a]pyridin-3-yl)benzamide]	100 to 500
COc1cccc(-c2nc(-c3cccc(C(=O)Nc4ccc(N(C)C)cc4)c3)n3ccccc23)c1 [Compound 8-2]	< 100
COc1cccc(-c2nn(C3CCCN(C(=O)Nc4ccc(N(C)C)cc4)C3)c3ncccc23)c1 (stereo not shown) [Compound 9-1, N-(4-(dimethylamino)phenyl)-3-(3-(3-methoxyphenyl)-1H-pyrazolo[3,4-b]pyridin-1-yl)piperidine-1-carboxamide]	< 100
COc1cccc(-c2nn(C3CCCN(C(=O)Nc4cccc(N(C)C)c4)C3)c3ncccc23)c1 (stereo not shown) [Compound 9-2]	< 100
CN(C)c1ccc(NC(=O)N2CCC[C@@H](c3nc(-c4ccccc4)c4ccccn34)C2)cc1 [Compound 10-2]	500 to 1000
CN(C)c1ccc(NC(=O)N2CCC[C@@H](c3nc(-c4ccccc4C(F)(F)F)c4ccccn34)C2)cc1 [Compound 10-3]	500 to 1000
CCOc1cccc(-c2nc([C@@H]3CCCN(C(=O)Nc4ccc(N(C)C)cc4)C3)n3ccccc23)c1 [Compound 10-4]	< 100
CN(C)c1ccc(NC(=O)N2CCC[C@@H](c3nc(-c4cccc(O)c4)c4ccccn34)C2)cc1 [Compound 10-5]	500 to 1000
CN(C)c1ccc(NC(=O)N2CCC[C@@H](c3nc(-c4cccc(N(C)C)c4)c4ccccn34)C2)cc1 [Compound 10-6]	100 to 500
CC(=O)c1cccc(-c2nc([C@@H]3CCCN(C(=O)Nc4ccc(N(C)C)cc4)C3)n3ccccc23)c1 [Compound 10-7]	< 100
CN(C)c1ccc(NC(=O)N2CCC[C@@H](c3nc(-c4ccccc4Cl)c4ccccn34)C2)cc1 [Compound 10-8]	500 to 1000
CCc1cccc(-c2nc([C@@H]3CCCN(C(=O)Nc4ccc(N(C)C)cc4)C3)n3ccccc23)c1 [Compound 10-9]	500 to 1000
CN(C)c1ccc(NC(=O)N2CCC[C@@H](c3nc(-c4cccc(-c5ccccc5)c4)c4ccccn34)C2)cc1 [Compound 10-10]	> 3000

Compound	IC50 [nM]
CN(C)c1ccc(NC(=O)N2CCC[C@@H](c3nc(-c4cccc(C(F)(F)F)c4)c4ccccn34)C2)cc1 [Compound 10-11]	500 to 1000
CN(C)c1ccc(NC(=O)N2CCC[C@@H](c3nc(-c4cccc(C#N)c4)c4ccccn34)C2)cc1 [Compound 10-12]	500 to 1000
CC(C)Oc1cccc(-c2nc([C@@H]3CCCN(C(=O)Nc4ccc(N(C)C)cc4)C3)n3ccccc23)c1 [Compound 10-13]	500 to 1000
CN(C)c1ccc(NC(=O)N2CCC[C@@H](c3nc(-c4ccc(OC(F)(F)F)cc4)c4ccccn34)C2)cc1 [Compound 10-14]	1000 to 3000
CN(C)c1ccc(NC(=O)N2CCC[C@H](c3nc(-c4ccccc4)c4ccccn34)C2)cc1 [Compound 10-15]	1000 to 3000
CN(C)c1ccc(NC(=O)N2CCC[C@@H](c3nc(-c4cccc(C(F)F)c4)c4ccccn34)C2)cc1 [Compound 10-16]	100 to 500
COc1cc(OC)cc(-c2nc([C@@H]3CCCN(C(=O)Nc4ccc(N(C)C)cc4)C3)n3ccccc23)c1 [Compound 10-17]	< 100
CC(O)c1cccc(-c2nc([C@@H]3CCCN(C(=O)Nc4ccc(N(C)C)cc4)C3)n3ccccc23)c1 (stereo partly shown) [Compound 10-18]	100 to 500
CN(C)c1ccc(NC(=O)N2CCC[C@@H](c3nc(-c4ccc(Cl)cc4)c4ccccn34)C2)cc1 [Compound 10-19]	500 to 1000
CN(C)c1ccc(NC(=O)N2CCC[C@@H](c3nc(-c4ccccc4-c4ccccc4)c4ccccn34)C2)cc1 [Compound 10-20]	> 3000
CCc1ccccc1-c1nc([C@@H]2CCCN(C(=O)Nc3ccc(N(C)C)cc3)C2)n2ccccc12 [Compound 10-21]	100 to 500
CN(C)c1ccc(NC(=O)N2CCC[C@@H](c3nc(-c4cccc(Cl)c4)c4ccccn34)C2)cc1 [Compound 10-22]	500 to 1000
CN(C)c1ccc(NC(=O)N2CCC[C@@H](c3nc(-c4ccc(C#N)cc4)c4ccccn34)C2)cc1 [Compound 10-23]	500 to 1000
CN(C)c1ccc(NC(=O)N2CCC[C@@H](c3nc(-c4cccc(OC(F)(F)F)c4)c4ccccn34)C2)cc1 [Compound 10-24]	500 to 1000
COc1cccc(-c2nc([C@@H]3CCCN(C(=O)NCCc4ccnn4C)C3)n3ccccc23)c1 [Compound 10-25]	100 to 500

The next lines start with the values.

IC50 [nM]	Compound
500 to 1000	CN(C)c1ccc(NC(=O)N2CCC[C@@H](c3nc(-c4ccc5c(c4)CCC5)c4ccccn34)C2)cc1 [Compound 10-26]
500 to 1000	CN(C)c1ccc(NC(=O)N2CCC[C@@H](c3nc(-c4ccc5c(c4)OCO5)c4ccccn34)C2)cc1 [Compound 10-27]
1000 to 3000	CN(C)c1ccc(NC(=O)N2CCC[C@H](c3nc(-c4cccc(F)c4)c4ccccn34)C2)cc1 [Compound 10-28]
500 to 1000	CCc1ccc(-c2nc([C@@H]3CCCN(C(=O)Nc4ccc(N(C)C)cc4)C3)n3ccccc23)cc1 [Compound 10-29]
1000 to 3000	CN(C)c1ccc(NC(=O)N2CCC[C@@H](c3nc(-c4ccc(C(F)(F)F)cc4)c4ccccn34)C2)cc1 [Compound 10-30]
> 3000	COc1ccccc1-c1nc([C@H]2CCCN(C(=O)Nc3ccc(N(C)C)cc3)C2)n2ccccc12 [Compound 10-31]
1000 to 3000	CN(C)c1ccc(NC(=O)N2CCC[C@@H](c3nc(-c4ccccc4C(F)F)c4ccccn34)C2)cc1 [Compound 10-32]
> 3000	CN(C)c1ccc(NC(=O)N2CCC[C@@H](c3nc(-c4ccc(-c5ccccc5)cc4)c4ccccn34)C2)cc1 [Compound 10-33]
1000 to 3000	CN(C)c1ccc(NC(=O)N2CCC[C@@H](c3nc(-c4ccc5ccccc5c4)c4ccccn34)C2)cc1 [Compound 10-34]
> 3000	CN(C)c1ccc(NC(=O)N2CCC[C@@H](c3nc(-c4ccc(S(C)(=O)=O)cc4)c4ccccn34)C2)cc1 [Compound 10-35]
500 to 1000	CC(=O)c1ccc(-c2nc([C@@H]3CCCN(C(=O)Nc4ccc(N(C)C)cc4)C3)n3ccccc23)cc1 [Compound 10-36]
500 to 1000	COc1ccccc1-c1nc([C@@H]2CCCN(C(=O)Nc3ccc(N(C)C)cc3)C2)n2ccccc12 [Compound 10-37]
500 to 1000	COc1cccc(-c2nc([C@@H]3CCCN(C(=O)NCCN4CCOCC4)C3)n3ccccc23)c1 [Compound 10-38]
> 3000	COC/C=C/c1nc([C@@H]2CCCN(C(=O)Nc3ccc(N(C)C)cc3)C2)n2ccccc12 [Compound 10-39]
500 to 1000	CNc1cccc(-c2nc([C@@H]3CCCN(C(=O)Nc4ccc(N(C)C)cc4)C3)n3ccccc23)c1 [Compound 10-40]
